PMC6688997 (Nature Communications, 2019)
Where two headings read alike, the source gives them in different places.

How the values were obtained:
[1] = system: EML4-ALK I1171T induced Ba/F3 cells; experiment: CellTiter-Glo cell viability assay; type: cell-based, murine; details: Mus musculus, BaF3, 72 h; read-out: IC50
[2] = target: LOK (Homo sapiens, UniProt O94804); experiment: Kinase assay, ATP Km; type: biochemical
[3] = target: T1, HIPK2 (Homo sapiens, UniProt Q9H2X6); experiment: Kinase assay, ATP Km; type: biochemical
T1 construct: purchased Carna Biosciences

[4] = target: CDK6/CycD3 (Homo sapiens, UniProt Q00534); experiment: Kinase assay, ATP Km; type: biochemical
Sequence of CDK6/CycD3 (Q00534 whole entry): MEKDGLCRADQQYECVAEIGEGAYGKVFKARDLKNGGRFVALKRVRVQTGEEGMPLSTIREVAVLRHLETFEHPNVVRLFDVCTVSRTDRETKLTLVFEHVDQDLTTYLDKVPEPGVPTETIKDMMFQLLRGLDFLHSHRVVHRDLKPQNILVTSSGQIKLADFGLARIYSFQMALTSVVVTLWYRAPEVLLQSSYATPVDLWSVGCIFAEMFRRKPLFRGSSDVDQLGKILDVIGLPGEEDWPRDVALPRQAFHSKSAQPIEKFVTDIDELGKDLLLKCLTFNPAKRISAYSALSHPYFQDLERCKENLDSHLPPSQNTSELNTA
Sequence of CDK6/CycD3 (P30281 whole entry partner): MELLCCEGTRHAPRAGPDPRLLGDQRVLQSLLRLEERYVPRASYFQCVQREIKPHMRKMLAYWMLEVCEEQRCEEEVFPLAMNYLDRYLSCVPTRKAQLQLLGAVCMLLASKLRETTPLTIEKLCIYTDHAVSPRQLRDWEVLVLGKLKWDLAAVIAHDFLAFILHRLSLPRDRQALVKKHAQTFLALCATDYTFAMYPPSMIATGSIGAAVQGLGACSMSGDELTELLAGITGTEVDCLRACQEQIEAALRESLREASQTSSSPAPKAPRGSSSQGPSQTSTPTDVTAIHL

[5] = target: p38γ (Homo sapiens, UniProt P53778); experiment: Kinase assay, ATP Km; type: biochemical
[6] = target: DYRK2 (Homo sapiens, UniProt Q92630); experiment: Kinase assay, ATP Km; type: biochemical
[7] = target: T2, NEK1 (Homo sapiens, UniProt Q96PY6); experiment: Kinase assay, ATP Km; type: biochemical
T2 construct: purchased Carna Biosciences

[8] = target: CK2α1/β (Homo sapiens, UniProt P68400); experiment: Kinase assay, ATP Km; type: biochemical
[9] = target: CK1δ (Homo sapiens, UniProt P48730); experiment: Kinase assay, ATP Km; type: biochemical
Sequence of CK1δ (P48730 whole entry): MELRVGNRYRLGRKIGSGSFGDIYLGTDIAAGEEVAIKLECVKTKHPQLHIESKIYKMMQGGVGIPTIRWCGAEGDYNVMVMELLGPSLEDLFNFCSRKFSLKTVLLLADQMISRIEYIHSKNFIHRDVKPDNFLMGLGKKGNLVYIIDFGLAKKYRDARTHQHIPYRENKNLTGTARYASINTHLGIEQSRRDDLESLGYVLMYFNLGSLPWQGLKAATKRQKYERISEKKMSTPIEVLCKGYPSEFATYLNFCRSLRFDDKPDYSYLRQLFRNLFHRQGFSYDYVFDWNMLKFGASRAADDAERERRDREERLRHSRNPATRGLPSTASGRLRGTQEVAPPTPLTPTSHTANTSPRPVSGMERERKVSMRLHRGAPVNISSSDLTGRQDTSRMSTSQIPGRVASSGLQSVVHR

[10] = target: T3, FLT1 (Homo sapiens, UniProt P17948); experiment: Kinase assay, ATP Km; type: biochemical
T3 construct: purchased Carna Biosciences

[11] = target: T4, AurC (Homo sapiens, UniProt Q9UQB9); experiment: Kinase assay, ATP Km; type: biochemical
T4 construct: purchased Carna Biosciences

[12] = system: SLC34A2-ROS1-WT overexpressing HCC78xe3 cells; experiment: Cell viability in 3D culture, CellTiter-Glo; type: cell-based; details: 72 h
[13] = target: T5, PRKX (Homo sapiens, UniProt P51817); experiment: Kinase assay, ATP Km; type: biochemical
T5 construct: purchased Carna Biosciences

[14] = target: T6, TYRO3 (Homo sapiens, UniProt Q06418); experiment: Kinase assay, ATP Km; type: biochemical
T6 construct: purchased Carna Biosciences

[15] = target: HER2 (Homo sapiens, UniProt P04626); experiment: Kinase assay, ATP Km; type: biochemical
Sequence of HER2 (P04626 23-1255): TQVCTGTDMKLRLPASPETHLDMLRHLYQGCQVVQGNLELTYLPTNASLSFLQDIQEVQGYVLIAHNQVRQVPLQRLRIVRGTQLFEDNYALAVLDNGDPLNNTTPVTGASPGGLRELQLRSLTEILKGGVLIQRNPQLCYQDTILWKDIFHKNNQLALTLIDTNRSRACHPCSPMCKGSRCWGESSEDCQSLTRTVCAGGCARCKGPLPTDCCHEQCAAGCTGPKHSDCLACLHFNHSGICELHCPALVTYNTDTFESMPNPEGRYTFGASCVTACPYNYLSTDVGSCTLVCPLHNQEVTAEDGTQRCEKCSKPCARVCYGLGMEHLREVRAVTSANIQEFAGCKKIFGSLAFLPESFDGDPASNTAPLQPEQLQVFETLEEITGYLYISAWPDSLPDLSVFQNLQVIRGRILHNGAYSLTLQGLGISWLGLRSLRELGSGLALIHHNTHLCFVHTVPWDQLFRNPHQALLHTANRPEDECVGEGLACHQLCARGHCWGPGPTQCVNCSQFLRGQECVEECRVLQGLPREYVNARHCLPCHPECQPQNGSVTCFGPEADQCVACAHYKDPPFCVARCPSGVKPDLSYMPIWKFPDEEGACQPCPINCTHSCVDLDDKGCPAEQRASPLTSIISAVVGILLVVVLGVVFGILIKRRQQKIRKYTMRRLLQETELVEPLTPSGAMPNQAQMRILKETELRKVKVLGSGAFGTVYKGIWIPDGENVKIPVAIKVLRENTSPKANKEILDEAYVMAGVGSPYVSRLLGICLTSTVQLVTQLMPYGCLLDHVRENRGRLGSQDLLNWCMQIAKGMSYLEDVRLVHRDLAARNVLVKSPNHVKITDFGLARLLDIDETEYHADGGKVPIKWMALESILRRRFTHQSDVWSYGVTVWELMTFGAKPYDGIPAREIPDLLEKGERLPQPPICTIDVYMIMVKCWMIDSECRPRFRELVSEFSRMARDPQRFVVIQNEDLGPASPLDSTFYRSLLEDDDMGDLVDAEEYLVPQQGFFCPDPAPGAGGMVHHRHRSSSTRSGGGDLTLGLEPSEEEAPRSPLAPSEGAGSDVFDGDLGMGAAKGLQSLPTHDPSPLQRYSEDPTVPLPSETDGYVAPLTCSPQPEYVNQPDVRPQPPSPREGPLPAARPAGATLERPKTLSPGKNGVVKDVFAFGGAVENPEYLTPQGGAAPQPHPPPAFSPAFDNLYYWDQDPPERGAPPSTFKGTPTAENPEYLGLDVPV

[16] = target: T7, FMS (Homo sapiens, UniProt P07333); experiment: Kinase assay, ATP Km; type: biochemical
T7 construct: purchased Carna Biosciences

[17] = target: T8, PKCθ (Homo sapiens, UniProt Q04759); experiment: Kinase assay, ATP Km; type: biochemical
T8 construct: purchased Carna Biosciences
T8 sequence (Q04759 whole entry): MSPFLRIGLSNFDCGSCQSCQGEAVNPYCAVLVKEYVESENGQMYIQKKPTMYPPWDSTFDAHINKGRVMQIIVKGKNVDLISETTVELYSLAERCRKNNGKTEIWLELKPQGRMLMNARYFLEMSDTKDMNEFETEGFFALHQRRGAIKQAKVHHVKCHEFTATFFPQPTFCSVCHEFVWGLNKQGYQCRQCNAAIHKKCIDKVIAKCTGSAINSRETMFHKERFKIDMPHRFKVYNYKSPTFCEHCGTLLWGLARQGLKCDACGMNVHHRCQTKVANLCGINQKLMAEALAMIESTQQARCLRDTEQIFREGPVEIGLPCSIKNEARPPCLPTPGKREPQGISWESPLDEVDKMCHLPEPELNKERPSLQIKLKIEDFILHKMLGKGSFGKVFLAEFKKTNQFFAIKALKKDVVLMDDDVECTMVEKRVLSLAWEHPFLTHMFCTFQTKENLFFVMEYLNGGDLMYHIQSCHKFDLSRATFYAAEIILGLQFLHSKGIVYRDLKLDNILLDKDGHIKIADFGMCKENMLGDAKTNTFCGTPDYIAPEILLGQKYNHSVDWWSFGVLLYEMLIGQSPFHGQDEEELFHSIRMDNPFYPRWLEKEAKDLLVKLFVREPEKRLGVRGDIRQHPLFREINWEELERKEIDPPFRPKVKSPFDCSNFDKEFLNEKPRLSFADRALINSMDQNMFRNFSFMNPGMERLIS

[18] = target: T9, PEK (Homo sapiens, UniProt Q9NZJ5); experiment: Kinase assay, ATP Km; type: biochemical
T9 construct: purchased Carna Biosciences
T9 sequence (Q9NZJ5 30-1116): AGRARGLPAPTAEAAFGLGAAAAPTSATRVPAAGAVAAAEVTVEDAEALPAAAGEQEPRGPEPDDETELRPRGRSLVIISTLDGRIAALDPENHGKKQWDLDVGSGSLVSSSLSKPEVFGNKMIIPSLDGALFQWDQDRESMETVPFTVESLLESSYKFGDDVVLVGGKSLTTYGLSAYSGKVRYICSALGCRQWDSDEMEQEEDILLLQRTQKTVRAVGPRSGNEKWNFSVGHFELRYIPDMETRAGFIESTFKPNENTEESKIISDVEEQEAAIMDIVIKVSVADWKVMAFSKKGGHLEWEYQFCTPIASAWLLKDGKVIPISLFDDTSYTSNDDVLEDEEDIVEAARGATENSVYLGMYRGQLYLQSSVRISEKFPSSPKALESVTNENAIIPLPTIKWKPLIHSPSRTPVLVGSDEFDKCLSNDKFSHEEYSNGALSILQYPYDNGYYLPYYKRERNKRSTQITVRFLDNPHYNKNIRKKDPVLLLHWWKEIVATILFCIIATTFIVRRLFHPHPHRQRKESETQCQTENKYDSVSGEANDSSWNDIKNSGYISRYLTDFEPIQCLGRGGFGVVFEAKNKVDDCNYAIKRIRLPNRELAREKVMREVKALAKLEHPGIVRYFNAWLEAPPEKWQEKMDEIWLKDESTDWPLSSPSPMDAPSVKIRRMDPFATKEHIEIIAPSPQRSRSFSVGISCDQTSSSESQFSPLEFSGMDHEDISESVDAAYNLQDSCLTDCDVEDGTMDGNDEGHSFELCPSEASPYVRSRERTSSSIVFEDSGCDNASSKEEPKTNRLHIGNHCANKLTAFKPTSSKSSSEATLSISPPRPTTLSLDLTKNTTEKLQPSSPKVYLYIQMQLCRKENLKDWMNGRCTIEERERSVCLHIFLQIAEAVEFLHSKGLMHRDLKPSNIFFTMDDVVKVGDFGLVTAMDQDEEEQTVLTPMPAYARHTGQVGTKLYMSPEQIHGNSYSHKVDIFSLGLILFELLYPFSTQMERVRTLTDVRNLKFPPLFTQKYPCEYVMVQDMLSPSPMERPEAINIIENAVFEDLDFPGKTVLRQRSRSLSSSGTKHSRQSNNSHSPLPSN

[19] = target: T10, SRPK1 (Homo sapiens, UniProt Q96SB4); experiment: Kinase assay, ATP Km; type: biochemical
T10 construct: purchased Carna Biosciences

[20] = target: PKCγ (Homo sapiens, UniProt P05129); experiment: Kinase assay, ATP Km; type: biochemical
[21] = system: parental Ba/F3 cells (with IL-3); experiment: CellTiter-Glo cell viability assay; type: cell-based, murine; details: for IC50: 72 h, medium containing IL-3, read-out: IC50
Procedure: All media were supplemented with 100 U/ml penicillin, and 100 µg/ml streptomycin. All cells were routinely tested and verified to be free of mycoplasma contamination.
To assess cell viability after 72-h drug treatment, 2000–5000 cells were plated in replicates of three to six in 96-well plates. Following the drug treatments, the cells were incubated with CellTiter-Glo assay reagent (Promega, Madison, WI, USA) for 10 min. […] GraphPad Prism version 7.0 (GraphPad Software, La Jolla, CA, USA) was used to graphically display the data. IC50 values were determined using a nonlinear regression model with a sigmoidal dose response in GraphPad.

[22] = target: PKCι (Homo sapiens, UniProt P41743); experiment: Kinase assay, ATP Km; type: biochemical
[23] = target: EPHB2 (Homo sapiens, UniProt P29323); experiment: Kinase assay, ATP Km; type: biochemical
[24] = target: CDK2/CycA2 (Homo sapiens, UniProt P24941); experiment: Kinase assay, ATP Km; type: biochemical
[25] = target: T11, DDR2 (Homo sapiens, UniProt Q16832); experiment: Kinase assay, ATP Km; type: biochemical
T11 sequence (Q16832 22-855): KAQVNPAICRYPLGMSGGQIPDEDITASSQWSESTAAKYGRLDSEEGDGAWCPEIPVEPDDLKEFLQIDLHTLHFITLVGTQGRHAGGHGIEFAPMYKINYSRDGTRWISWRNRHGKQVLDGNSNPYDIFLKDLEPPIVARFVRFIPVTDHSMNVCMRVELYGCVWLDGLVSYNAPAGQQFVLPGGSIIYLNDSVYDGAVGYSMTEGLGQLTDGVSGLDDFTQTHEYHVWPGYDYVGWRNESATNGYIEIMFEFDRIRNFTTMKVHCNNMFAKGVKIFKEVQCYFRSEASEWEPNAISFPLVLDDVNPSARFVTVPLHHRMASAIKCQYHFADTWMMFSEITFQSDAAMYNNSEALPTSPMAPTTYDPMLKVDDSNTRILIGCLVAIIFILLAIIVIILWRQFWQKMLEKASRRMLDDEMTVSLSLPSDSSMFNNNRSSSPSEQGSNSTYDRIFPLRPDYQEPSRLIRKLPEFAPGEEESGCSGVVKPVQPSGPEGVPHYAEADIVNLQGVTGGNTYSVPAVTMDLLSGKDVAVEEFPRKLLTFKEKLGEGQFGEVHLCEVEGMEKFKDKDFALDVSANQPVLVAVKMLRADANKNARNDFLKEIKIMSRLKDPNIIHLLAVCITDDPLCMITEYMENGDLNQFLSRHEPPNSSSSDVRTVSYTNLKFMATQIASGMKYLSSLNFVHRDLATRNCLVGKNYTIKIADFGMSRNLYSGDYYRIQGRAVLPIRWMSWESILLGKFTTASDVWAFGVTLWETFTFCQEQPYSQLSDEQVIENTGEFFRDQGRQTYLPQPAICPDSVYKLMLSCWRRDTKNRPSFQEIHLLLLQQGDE

[26] = target: T12, CHK2 (Homo sapiens, UniProt O96017); experiment: Kinase assay, ATP Km; type: biochemical
T12 construct: purchased Carna Biosciences
T12 sequence (O96017 whole entry): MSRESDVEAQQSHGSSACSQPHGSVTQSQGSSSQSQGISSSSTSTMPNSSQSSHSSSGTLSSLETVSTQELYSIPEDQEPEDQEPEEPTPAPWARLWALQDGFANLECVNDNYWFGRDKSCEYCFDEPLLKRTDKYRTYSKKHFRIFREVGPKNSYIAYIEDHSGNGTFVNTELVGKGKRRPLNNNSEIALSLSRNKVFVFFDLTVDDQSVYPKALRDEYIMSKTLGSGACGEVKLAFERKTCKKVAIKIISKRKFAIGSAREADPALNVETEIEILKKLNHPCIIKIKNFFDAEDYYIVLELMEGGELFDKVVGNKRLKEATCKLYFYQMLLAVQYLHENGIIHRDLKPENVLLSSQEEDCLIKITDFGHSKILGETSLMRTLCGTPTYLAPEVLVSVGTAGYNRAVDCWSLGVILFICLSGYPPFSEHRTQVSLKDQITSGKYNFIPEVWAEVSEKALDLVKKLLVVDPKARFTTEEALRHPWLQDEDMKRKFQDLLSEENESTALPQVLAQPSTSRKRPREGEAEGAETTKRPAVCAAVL

[27] = target: BUB1/BUB3 (Homo sapiens, UniProt O43683); experiment: Kinase assay, ATP Km; type: biochemical
[28] = target: PKN1 (Homo sapiens, UniProt Q16512); experiment: Kinase assay, ATP Km; type: biochemical
[29] = target: CDK2/CycE1 (Homo sapiens, UniProt P24941); experiment: Kinase assay, ATP Km; type: biochemical
[30] = target: LCK (Homo sapiens, UniProt P06239); experiment: Kinase assay, ATP Km; type: biochemical
[31] = target: T13, MAPKAPK3 (Homo sapiens, UniProt Q16644); experiment: Kinase assay, ATP Km; type: biochemical
T13 construct: purchased Carna Biosciences
T13 sequence (Q16644 whole entry): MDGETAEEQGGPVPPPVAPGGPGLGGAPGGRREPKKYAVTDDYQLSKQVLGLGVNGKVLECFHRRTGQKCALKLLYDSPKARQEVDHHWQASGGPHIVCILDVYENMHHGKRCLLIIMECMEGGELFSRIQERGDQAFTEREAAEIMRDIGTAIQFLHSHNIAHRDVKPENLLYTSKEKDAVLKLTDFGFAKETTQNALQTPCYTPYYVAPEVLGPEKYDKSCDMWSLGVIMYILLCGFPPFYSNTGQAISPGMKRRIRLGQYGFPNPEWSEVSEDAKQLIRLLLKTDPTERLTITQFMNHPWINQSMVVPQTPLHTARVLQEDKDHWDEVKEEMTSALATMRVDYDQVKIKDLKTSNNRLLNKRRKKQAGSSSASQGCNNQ

## C[C@@H](N)COc1ccc(-c2cnc3ccc(N[C@H](C)c4cccc(F)c4)nn23)cc1.O=C(O)CCCCC(=O)O [DS-6051b]
[1]
  IC50: 459 nM
[2]
  inhibition at 0.04 µM: 35%
[3]
  inhibition at 0.04 µM: 3.5%
[4]
  inhibition at 0.04 µM: -2.6%
[5]
  inhibition at 0.04 µM: -1.8%
[6]
  inhibition at 0.04 µM: 5.3%
[7]
  inhibition at 0.04 µM: 7.2%
[8]
  inhibition at 0.04 µM: 4.1%
[9]
  inhibition at 0.04 µM: 3.5%
[10]
  inhibition at 0.04 µM: 2.1%
[11]
  inhibition at 0.04 µM: 35.7%
[12]
  Cell growth inhibition: inhibited cell growth
[13]
  inhibition at 0.04 µM: 1.7%
[14]
  inhibition at 0.04 µM: 9.5%
[15]
  inhibition at 0.04 µM: 21.5%
[16]
  inhibition at 0.04 µM: 91.3%
[17]
  inhibition at 0.04 µM: 15.8%
[18]
  inhibition at 0.04 µM: 6.2%
[19]
  inhibition at 0.04 µM: -0.0643%
[20]
  inhibition at 0.04 µM: 4.7%
[21]
  IC50: > 1000 nM
[21]; Mus musculus, BaF3, 72 h
  IC50: 1410 nM
[21]; Mus musculus, BaF3, source data sheet
  GI50: 1400 nM
[22]
  inhibition at 0.04 µM: 15.6%
[23]
  inhibition at 0.04 µM: 21.9%
[24]
  inhibition at 0.04 µM: 3%
[25]
  inhibition at 0.04 µM: 93.7%
[26]
  inhibition at 0.04 µM: -3.2%
[27]
  inhibition at 0.04 µM: -1.8%
[28]
  inhibition at 0.04 µM: 75.4%
[29]
  inhibition at 0.04 µM: -8.6%
[30]
  inhibition at 0.04 µM: 66.5%
[31]
  inhibition at 0.04 µM: -6.1%
